Data as given in US7109193B2, “Tricyclic diazepines tocolytic oxytocin receptor antagonists” (Wyeth, priority 2001, dated 2006).

Target: T1, human vasopressin V2 receptor subtype (Homo sapiens, UniProt P30518)
T1 construct: host or cells: CHO cells (pZeoSV vector)
Assay: Vasopressin binding in Chinese Hamster Ovary cell membranes expressing human vasopressin V2 subtype receptors
Details: 100 nM, CHO cell membranes, [3H]arginine vasopressin, values without parentheses
Summary of the method: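 Radioligand displacement on membranes from CHO cells stably expressing human V2 receptor, 25 to 50 μg protein/well, in 50 mM Tris-HCl pH 7.4 with MgCl2, BSA and protease inhibitors. [^3H]arginine vasopressin (8 nM working solution) incubated 60 min at room temperature; bound label measured by filtration and scintillation counting.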

T1 sequence (P30518 whole entry): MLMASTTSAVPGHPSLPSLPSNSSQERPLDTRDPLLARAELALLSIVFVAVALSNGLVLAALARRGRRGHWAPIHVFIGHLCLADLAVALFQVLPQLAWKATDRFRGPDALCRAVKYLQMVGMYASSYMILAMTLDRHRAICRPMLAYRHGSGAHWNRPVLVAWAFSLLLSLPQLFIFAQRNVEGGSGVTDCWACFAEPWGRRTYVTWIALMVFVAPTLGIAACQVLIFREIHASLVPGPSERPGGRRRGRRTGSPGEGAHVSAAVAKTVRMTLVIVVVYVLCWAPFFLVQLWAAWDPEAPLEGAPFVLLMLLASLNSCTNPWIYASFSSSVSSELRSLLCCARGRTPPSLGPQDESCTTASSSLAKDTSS

inhibition at 0.1 µM | SMILES
18% | COc1cccc(-c2ccc(C(=O)N3Cc4ccc(C(=O)N(C)C5CCN(C)CC5)n4Cc4ccccc43)cc2C)c1 [Example 176, 10-[(3′-Methoxy-2-methyl[1,1′-biphenyl]-4-yl)carbonyl]-N-methyl-N-(1-methyl-4-piperidinyl)-10,11-dihydro-5H-pyrrolo[2,1-c][1,4]benzodiazepine-3-carboxamide]
4% | Cc1cc(C(=O)N2Cc3ccc(C(=O)NCCN4CCCCC4)n3Cc3ccccc32)ccc1-c1ccccc1C(F)(F)F [Example 161, 10-{[2-Methyl-2′-(trifluoromethyl)[1,1′-biphenyl]-4-yl]carbonyl}-N-[2-(1-piperidinyl)ethyl]-10,11-dihydro-5H-pyrrolo[2,1-c][1,4]benzodiazepine-3-carboxamide]
23% | COc1cccc(-c2ccc(C(=O)N3Cc4ccc(C(=O)N5CCN(CCN6CCOCC6)CC5)n4Cc4ccccc43)cc2OC)c1 [Example 211, {10-[(2,3′-Dimethoxy[1,1′-biphenyl]-4-yl)carbonyl]-10,11-dihydro-5H-pyrrolo[2,1-c][1,4]benzodiazepin-3-yl}{4-[2-(4-morpholinyl)ethyl]-1-piperazinyl}methanone]
10% | Cc1ccccc1-c1ccc(C(=O)N2Cc3ccc(C(=O)N4CCN(CCN(C)C)CC4)n3Cc3ccccc32)cc1 [Example 200, {4-[2-(Dimethylamino)ethyl]-1-piperazinyl}{10-[(2′-methyl[1,1′-biphenyl]-4-yl)carbonyl]-10,11-dihydro-5H-pyrrolo[2,1-c][1,4]benzodiazepin-3-yl}methanone]
